In experiment [1] the target is T1, full-length KDM4A (residues 1-1,064) (Homo sapiens, UniProt O75164).
T1 construct: full-length KDM4A (residues 1–1,064) purified from HEK293T cells; made in house; host or cells: HEK293T (transient transfection, anti-FLAG M2 immunoprecipitation)
T1 sequence (O75164 1-1064): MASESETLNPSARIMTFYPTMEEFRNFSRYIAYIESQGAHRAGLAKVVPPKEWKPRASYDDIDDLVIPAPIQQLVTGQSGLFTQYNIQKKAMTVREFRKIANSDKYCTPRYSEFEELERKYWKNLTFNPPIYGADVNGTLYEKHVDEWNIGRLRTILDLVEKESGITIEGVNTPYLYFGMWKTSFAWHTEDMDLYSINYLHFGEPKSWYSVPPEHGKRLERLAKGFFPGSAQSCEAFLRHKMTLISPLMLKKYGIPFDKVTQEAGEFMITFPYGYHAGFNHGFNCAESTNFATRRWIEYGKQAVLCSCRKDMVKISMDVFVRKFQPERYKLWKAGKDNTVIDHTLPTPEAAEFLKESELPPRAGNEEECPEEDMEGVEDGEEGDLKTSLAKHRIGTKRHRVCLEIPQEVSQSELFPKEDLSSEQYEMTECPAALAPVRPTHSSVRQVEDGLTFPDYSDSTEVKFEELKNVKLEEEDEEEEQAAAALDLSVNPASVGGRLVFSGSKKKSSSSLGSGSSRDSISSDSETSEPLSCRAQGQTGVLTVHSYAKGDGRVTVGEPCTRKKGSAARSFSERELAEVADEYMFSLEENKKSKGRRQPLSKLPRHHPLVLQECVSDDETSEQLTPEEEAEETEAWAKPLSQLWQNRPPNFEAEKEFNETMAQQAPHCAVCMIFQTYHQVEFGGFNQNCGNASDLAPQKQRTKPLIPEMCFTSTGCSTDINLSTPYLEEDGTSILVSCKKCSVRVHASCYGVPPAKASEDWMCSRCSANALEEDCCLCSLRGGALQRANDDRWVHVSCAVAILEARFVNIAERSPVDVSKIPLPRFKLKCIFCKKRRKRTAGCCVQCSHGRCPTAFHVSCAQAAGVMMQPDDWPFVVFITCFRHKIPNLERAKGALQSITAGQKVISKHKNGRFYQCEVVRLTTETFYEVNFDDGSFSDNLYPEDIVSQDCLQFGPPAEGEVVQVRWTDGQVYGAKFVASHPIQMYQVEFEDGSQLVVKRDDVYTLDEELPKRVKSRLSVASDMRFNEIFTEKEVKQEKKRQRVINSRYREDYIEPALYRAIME
Description: MALDI-TOF MS demethylation assay with full-length KDM4A. In kind it is biochemical. To be noted: CP2 10 µM; H3K9me3 and H3K36me3 peptides 10 µM; 1 h 37°C. From the text:
N-terminally Hexa-His-tagged KDM4A (His-KDM4A1–359) was produced and purified as described. The KDM4A gene encoding for KDM4A protein (residues 1-359) was cloned into the pNIC-Bio3 plasmid, which incorporates a C-terminal AviTag and expressed with biotin supplement in BL21(DE3)Rosetta co-transfected with pCDF-BirA[32]. His-KDM4A with biotin (His-KDM4A-Bio) was purified using nickel affinity chromatography. Complete (>95%) biotinylation of KDM4A was confirmed using electrospray ionization–MS (Waters Micromass LCT Premier). […] The full-length FLAG-tagged KDM4A1–1,064 (ref. [15]) was produced in HEK293T cells. HEK293T cells were grown to 80% confluency in DMEM medium (Sigma) supplemented with Glutamax (Life Technologies), 10% fetal bovine serum (FBS, Sigma). FLAG-tagged KDM4A was transfected using polyethyleneimine. Cells were harvested after 48 h, washed with PBS (Sigma) and lysed (45 min, 4 °C) in 50 mM HEPES (pH 7.5), 150 mM NaCl buffer containing protease inhibitor cocktail (Sigma), 10 μM DNase (Sigma) and 0.1% NP40 (Roche). FLAG-tagged KDM4A was purified by immunoprecipitation using anti-FLAG M2 magnetic beads (Sigma) and washed in 50 mM HEPES (pH 7.5) 150 mM NaCl. The final wash was performed in 50 mM HEPES (pH 7.5) and the resin was used as an enzyme source for the full-length KDM4A.
KDM4A in vitro. […]
(pH 7.5) at 37°C for 1 h. The assay products were analysed by MALDI-TOF MS. […]

In a further experiment the target is T2, His-KDM4A1-359 (Homo sapiens, UniProt O75164).
T2 construct: using 0.5 μM His-KDM4A1–359; made in house
T2 sequence (O75164 1-359): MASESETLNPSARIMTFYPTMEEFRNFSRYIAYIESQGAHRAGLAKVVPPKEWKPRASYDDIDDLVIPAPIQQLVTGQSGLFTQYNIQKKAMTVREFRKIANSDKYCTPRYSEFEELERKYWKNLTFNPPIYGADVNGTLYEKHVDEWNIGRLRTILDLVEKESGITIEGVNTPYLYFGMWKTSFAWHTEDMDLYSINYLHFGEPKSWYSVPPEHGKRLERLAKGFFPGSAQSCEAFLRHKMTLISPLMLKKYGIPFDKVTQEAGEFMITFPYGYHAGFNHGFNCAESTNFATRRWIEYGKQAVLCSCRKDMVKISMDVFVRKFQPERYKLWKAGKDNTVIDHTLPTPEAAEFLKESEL
Description: Formaldehyde dehydrogenase coupled KDM assay (mode of inhibition). It is filed as biochemical.

Description for His-KDM4A1-359: The formaldehyde dehydrogenase coupled KDM assay was used to determine the mode of inhibition[34], using 0.5 μM His-KDM4A1–359. Prism 5.0 (GraphPad) was used to fit in mix-mode inhibition, to determine the kinetic parameters. Binding constants for CPs and H3(1–15)K9me3 were measured using biolayer interferometry (OctetRed 384, ForteBio) in buffer (50 mM HEPES (pH 7.5), 150 mM NaCl, 10 μM ammonium iron(II) sulphate). His-KDM4A1–359-Bio (70 nM) was immobilized onto super streptavidin biosensor and subjected to different peptide concentrations in buffer. Data analysis was performed using ForteBio Data Aalysis (v6.4).
KDM4A1-359 was immobilized and analysed for binding to peptides at different concentrations.
The concentration of KDM4A in the assay mixture was 0.5 µM.

With DYVYNTRSGWRWYTC [CP2], the “Inhibition of demethylation by full-length KDM4A” value in experiment [1] is “inhibits”. Further, on His-KDM4A1-359 (FDH assay, 0.5 µM KDM4A), the “α (mixed-mode inhibition parameter)” value is listed as 4.73. Besides, the “Mode of inhibition with respect to H3K9me3” value on His-KDM4A1-359 (kinetic analyses) was “competitive inhibitor”.

For the origin of these results see PMC5384220 (Nature Communications, 2017).
